Here are results for four molecules from patent US20250346563A1, “HISTONE DEACETYLASE 6 INHIBITORS AND METHOD FOR TREATING NEUROPATHIC PAIN” (Taipei Medical University, priority 2019, published 2025).

Experiment [1] deals with rat Taxol-induced neuropathic pain model. Briefly: Thermal hyperalgesia in rat Taxol-induced neuropathic pain model. Particulars: for thermal hyperalgesia (heat pain threshold) vs vehicle: p<0.05.
Description: Gabapentin (100 mg/kg), was administrated via IP injection on Days 14, 21, and 27 (total three doses) by using the same cohort of animals in vehicle control group. Thermal hyperalgesia was assessed prior to Taxol challenge (Day 0; Pre-Taxol) and compound administration (Day 13; Pre-dose) and at 1.5 hours after (second) compound administration on Days 14, 17, 21, 24, and 27 (Post-dose). All values represented mean±SEM in individual groups. One-way ANOVA followed by Dunnett's test was applied for comparison between vehicle control and test article groups. p<0.05 is considered significant.
Animal. Male Sprague-Dawley (SD) rats weighing 220-260 g (at arrival) were provided by BioLasco Taiwan (under Charles River Laboratories Technology Licensee).
Chemotherapy induced neuropathy. Male SD rats weighing 240±20 grams was employed. Taxol (2 mg/kg) was injected IP on Days 1, 3, 5 and 7 with a total cumulative dose of 8 mg/kg (qod×4). During the course of the study, the animals were housed socially under constant temperature, humidity and a 12-hour light-dark cycle.
The reference compound, gabapentin (100 mg/kg, IP), was administrated on Days 14, 21, and 27 (total three doses) by using the same cohort of animals in vehicle control group.
The animals were tested prior to study inclusion for thermal hyperalgesia on Day 13. Thermal hyperalgesia was measured at 1.5 hour after dosing of vehicle or test article on Days 14, 17, 21, 24 and 27 by using the IITC Plantar Test Apparatus (IITC Model-336G; IITC Inc., USA). […] A light beam under the floor was aimed at the plantar surface of the left hind paw. The time was measured automatically when the paw is withdrawn away from the thermal stimulus. A cut-off latency of 23 sec was imposed. The latency to withdrawal was obtained for each rat and defined as the heat pain threshold.
All values represented mean±SEM in individual groups. One-way ANOVA followed by Dunnett's test was applied for comparison between vehicle control and test article groups. p<0.05 is considered significant.
For experiment [2], the system named is scopolamine-treated rats. Briefly: Elevated plus maze test, scopolamine-treated rats. The settings on record: by gavage twice daily for seven days; scopolamine 1.5 mg/kg ip. The class given is in vivo. On the procedure: (§1) Compound 12, Compound 28, suberanilohydroxamic acid (50 mg/kg) or vehicle was given to rats by gavage twice daily for seven days prior to behavioral experiments. On the day conducting a behavior assessment, rats in all groups except the control group were administered scopolamine (1.5 mg/kg) by intraperitoneal injection for 30 minutes before the assessment, then a water maze test or an elevated plus maze test was performed.

In a further experiment the test system is IL-6 expression. Briefly: LPS-induced IL-6 expression in RAW 264.7 cells (ELISA). Particulars: 10 μM, LPS 24 hr. The class given is cell-based, mouse. Here is the method: FIG. 1. Effects of Compound 28 on LPS-induced IL-6 protein expression. The cells were induced with 1 µg/mL LPS and various concentrations of Compound 28 for 24 hr. The levels of IL-6 were determined by ELISA kit.
In this example, we tested that whether Compound 28 can attenuate LPS-induced inflammation.
Cells. The RAW 264.7 cell line derived from mouse macrophage were maintained in Dulbecco's modified Eagle's medium (DMEM; GIBCO, Carlsbad, CA, USA) supplemented with 10% heat-inactivated fetal bovine serum (FBS), 100 μg/mL streptomycin, and 100 IU/mL penicillin.
Measurement of IL-6 expression. RAW cells were cultured onto 6 wells plate. After reaching 80% confluence, cells were pretreated with Compound 28 in 1% FBS medium for 30 min and then incubated with LPS for 24 hr. The levels of IL-6 were determined by IL-6 ELISA kit (BD Bioscience, San Jose, CA, USA). Briefly, 50 μL conditioned medium and 50 μL Assay Diluent were added to each well for 2 hours at room temperature. After washed five times, 100 μL Working Detector was added and incubated for 1 hour. After repetitive washing, 100 μL TMB-Substrate Solution was added for 30 minutes. Finally, 50 μL Stop Solution was added and the optical density was determined using microplate reader set at 450 nm.

The subject of experiment [3] is multiple myeloma cells (RPMI8226, U266, NCI-H929). As to the kind of experiment: Apoptosis in multiple myeloma cells, combined with bortezomib (FACScan, propidium iodide). Format: cell-based, human. The settings on record: RPMI8226, U266, and NCI-H929, 24 hours. On the procedure: A study was conducted to evaluate the effect of a compound of Formula (I) combined with bortezomib in inducing apoptosis in multiple myeloma cells.
To detect cell cycle progression, cells were incubated with or without the indicated agent for 24 hours, washed twice with ice-cold PBS, collected by centrifugation, and fixed in 70% (v/v) ethanol for 2 hours at −20° C. They were subsequently incubated for 30 minutes at room temperature with 0.2 mL of deoxyribonucleic acid (DNA) extraction buffer (0.2 M Na2HPO4 and 0.1 M citric acid buffer, pH 7.8), re-suspended in 1 mL of propidium iodide staining buffer (0.1% Triton X-100, 100 μg/mL of RNase A, and 80 μg/mL of propidium iodide in PBS), incubated at 37° C. for 30 minutes in darkness, sorted by FACScan, and analyzed using CellQuest software (BD Biosciences).
The study was performed according to the protocol reported in Hsieh et al., Cell Death and Disease, 2014 April; 5:e1166.

Experiment [4] relates to scopolamine-treated rats. As to the kind of experiment: Water maze test, scopolamine-treated rats. Format: in vivo. The settings on record: by gavage twice daily for seven days; scopolamine 1.5 mg/kg ip. On the procedure: as §1

For the molecule `O=C(CCCCCCNC(=O)c1cnc(N(c2ccccc2)c2ccccc2Cl)nc1)NO` [ACY241, Citarinostat, reference compound], in experiment [1] (50 mg/kg PO qd x14, Days 14, 17, 21, and 24), the “thermal hyperalgesia (heat pain threshold) vs vehicle” value is reported as “successfully relieved the thermal hyperalgesia”.

In the case of `NCC1(CC(=O)O)CCCCC1` [Gabapentin, reference compound], the “thermal hyperalgesia (heat pain threshold)” value in experiment [1] (100 mg/kg IP on Days 14, 21, and 27, during the experimental period) is “attenuated the thermal pain”.

For `O=C(NO)c1ccc(CNc2cccc3cccnc23)cc1` [Compound 28, N-hydroxy-4-((quinolin-8-ylamino)methyl)benzamide], the “transfer latency time (elevated plus maze test)” value with scopolamine-treated rats [2] is given as “significantly rescued scopolamine-mediated increase of transfer latency time”. Further, the “LPS-induced IL-6 expression” value in the experiment on IL-6 expression is listed as “significantly reduce LPS-induced IL-6 expression”. In addition, in experiment [3], the apoptosis induction result is recorded as “synergistically induced apoptosis”. Further, the “time spent in the correct quadrant (water maze test)” value in the experiment with scopolamine-treated rats [4] is “markedly reverse this effect”. Also, the “thermal hyperalgesia (heat pain threshold) vs vehicle” value in experiment [1] (50 mg/kg PO bid x14, Days 21 and 24) is on record as “markedly reduced the thermal pain”; in experiment [1] (50 mg/kg PO qd x14, Days 14 and 17), “significant analgesic effects”; in experiment [1] (50 mg/kg PO qd x14, Days 21 and 24) it was “markedly reduced the thermal pain”.

As to `O=C(NO)c1ccc(CNc2cccc3ncccc23)cc1` [Compound 12, N-hydroxy-4-((quinolin-5-ylamino)methyl)benzamide], in the experiment with scopolamine-treated rats [2], the “transfer latency time (elevated plus maze test)” value is “significantly rescued scopolamine-mediated increase of transfer latency time”. In the experiment with scopolamine-treated rats [4], the “time spent in the correct quadrant (water maze test)” value is “markedly reverse this effect”.
